Kd data for 1 compound are collected here from BindingDB's records for doi:10.1021/acs.jmedchem.7b00089 (International Centre For Genetic Engineering and …, 2017).

For the assay, the target named is T1, Heme ligase (Plasmodium falciparum (isolate 3D7), UniProt Q8IL04).
T1 sequence (Q8IL04 whole entry): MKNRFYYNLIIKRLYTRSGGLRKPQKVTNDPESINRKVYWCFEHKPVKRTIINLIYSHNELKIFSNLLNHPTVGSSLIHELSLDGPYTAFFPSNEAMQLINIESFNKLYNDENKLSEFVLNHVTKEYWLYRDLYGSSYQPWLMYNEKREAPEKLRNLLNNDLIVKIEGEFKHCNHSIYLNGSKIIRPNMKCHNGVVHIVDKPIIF
Kind of assay: ChEBML_1681013. From the text: Binding affinity to Plasmodium falciparum 3D7 HDP assessed as equilibrium dissociation constant by SPR assay

The structures appear in SMILES notation.

As usually defined, the Kd is a measure of binding affinity in units of concentration. Low readings indicate tighter binding, high ones weaker binding. `FC(F)(F)c1cccc(N2CCN(C3=Cc4ccccc4CC3)CC2)c1`: the affinity, expressed as Kd, was 2960 nM.
